# Assays:
# Type in all cases: cell-based
# M4 muscarinic receptor = molecular target: T1, M4 muscarinic receptor (Homo sapiens, UniProt P08173); experiment: Functional mobilization of intracellular calcium (FLIPR) in CHO cells expressing M4; settings: for EC50: CHO cells expressing M4, FLIPR calcium; for Emax: CHO, 100% = maximum response obtained with the Carbachol control, read-out: M4 Efficacy
# T1 construct: expressed in transfected cells; host or cells: CHO (M4-CHO)
# T1 sequence (P08173 1-479): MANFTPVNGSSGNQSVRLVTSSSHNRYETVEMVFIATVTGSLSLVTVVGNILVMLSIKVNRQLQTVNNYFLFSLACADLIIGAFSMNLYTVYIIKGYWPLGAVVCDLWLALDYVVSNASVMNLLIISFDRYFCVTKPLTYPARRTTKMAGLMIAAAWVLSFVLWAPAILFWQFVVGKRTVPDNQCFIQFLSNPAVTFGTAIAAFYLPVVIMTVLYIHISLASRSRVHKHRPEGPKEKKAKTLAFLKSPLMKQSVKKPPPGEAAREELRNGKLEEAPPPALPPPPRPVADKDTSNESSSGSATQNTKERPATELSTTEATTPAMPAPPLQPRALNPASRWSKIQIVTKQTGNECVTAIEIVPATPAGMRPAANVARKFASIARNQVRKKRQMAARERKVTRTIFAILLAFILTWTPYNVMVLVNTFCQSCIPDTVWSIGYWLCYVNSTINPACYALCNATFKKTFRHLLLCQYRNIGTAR
# Summary of the method: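 Read-out: FLIPR fluorescence (ex 488, em 540 nm) over 60 s. Recombinant CHO lines are dye-loaded (Fluo-3 AM or Calcium 3) with 1 mM probenecid. For antagonist mode, compound is pre-incubated 15 min, or co-applied, then carbachol is added at 3× EC80 per subtype.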
# M2 muscarinic receptor = molecular target: T2, M2 muscarinic receptor (Homo sapiens, UniProt P08172); experiment: Functional mobilization of intracellular calcium (FLIPR) in CHO cells expressing M2; settings: for EC50: CHO cells expressing M2, FLIPR calcium; for Emax: CHO, 100% = maximum response obtained with the Carbachol control, read-out: M2 Efficacy
# T2 construct: expressed in transfected cells; host or cells: CHO (M2-CHO)
# T2 sequence (P08172 1-466): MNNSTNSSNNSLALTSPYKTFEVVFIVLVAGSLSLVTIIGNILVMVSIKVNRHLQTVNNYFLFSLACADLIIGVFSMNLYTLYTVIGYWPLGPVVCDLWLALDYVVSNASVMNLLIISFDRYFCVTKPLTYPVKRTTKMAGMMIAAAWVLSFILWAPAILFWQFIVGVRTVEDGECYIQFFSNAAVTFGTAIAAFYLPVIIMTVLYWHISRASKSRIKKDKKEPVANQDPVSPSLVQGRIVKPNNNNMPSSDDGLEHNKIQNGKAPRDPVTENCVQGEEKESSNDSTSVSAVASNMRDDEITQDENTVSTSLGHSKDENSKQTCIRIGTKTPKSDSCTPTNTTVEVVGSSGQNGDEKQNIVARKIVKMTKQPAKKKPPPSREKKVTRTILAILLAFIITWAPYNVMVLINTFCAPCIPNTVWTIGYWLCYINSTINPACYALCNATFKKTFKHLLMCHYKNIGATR
# Summary of the method: (§1)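 Calcium flux is read on FLIPR over 60 sec at 488/540 nm in muscarinic-receptor CHO lines. Antagonist mode adds carbachol at EC80 after 15 min compound preincubation or with simultaneous co-application. Agonist mode adds compound alone. Cells carry Fluo-3 or Calcium 3 dye in probenecid-containing pH 7.4 buffer, 0.5% DMSO final.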
# M1 muscarinic receptor = molecular target: T3, M1 muscarinic receptor (Homo sapiens, UniProt P11229); experiment: Functional mobilization of intracellular calcium (FLIPR) in CHO cells expressing M1; settings: for EC50: CHO cells expressing M1, FLIPR calcium; for Emax: CHO, 100% = maximum response obtained with the Carbachol control, read-out: M1 Efficacy
# T3 construct: expressed in transfected cells; host or cells: CHO (M1-CHO)
# T3 sequence (P11229 1-460): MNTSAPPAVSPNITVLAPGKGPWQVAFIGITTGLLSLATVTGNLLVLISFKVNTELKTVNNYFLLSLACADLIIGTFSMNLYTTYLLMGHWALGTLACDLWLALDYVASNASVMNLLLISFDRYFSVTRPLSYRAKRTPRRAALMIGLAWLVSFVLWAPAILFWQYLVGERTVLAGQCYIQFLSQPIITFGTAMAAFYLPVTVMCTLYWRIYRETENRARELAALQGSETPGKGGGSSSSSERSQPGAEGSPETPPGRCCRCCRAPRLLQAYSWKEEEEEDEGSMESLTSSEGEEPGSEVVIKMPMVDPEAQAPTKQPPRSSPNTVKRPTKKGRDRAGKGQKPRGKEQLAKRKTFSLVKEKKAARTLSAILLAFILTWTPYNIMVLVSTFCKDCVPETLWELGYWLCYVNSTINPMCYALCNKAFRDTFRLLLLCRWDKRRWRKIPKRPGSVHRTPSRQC
# Summary of the method: as §1
# M3 muscarinic receptor = molecular target: T4, M3 muscarinic receptor (Homo sapiens, UniProt P20309); experiment: Functional mobilization of intracellular calcium (FLIPR) in CHO cells expressing M3; settings: for EC50: CHO cells expressing M3, FLIPR calcium; for Emax: CHO, 100% = maximum response obtained with the Carbachol control, read-out: M3 Efficacy
# T4 construct: expressed in transfected cells; host or cells: CHO (M3-CHO)
# T4 sequence (P20309 whole entry): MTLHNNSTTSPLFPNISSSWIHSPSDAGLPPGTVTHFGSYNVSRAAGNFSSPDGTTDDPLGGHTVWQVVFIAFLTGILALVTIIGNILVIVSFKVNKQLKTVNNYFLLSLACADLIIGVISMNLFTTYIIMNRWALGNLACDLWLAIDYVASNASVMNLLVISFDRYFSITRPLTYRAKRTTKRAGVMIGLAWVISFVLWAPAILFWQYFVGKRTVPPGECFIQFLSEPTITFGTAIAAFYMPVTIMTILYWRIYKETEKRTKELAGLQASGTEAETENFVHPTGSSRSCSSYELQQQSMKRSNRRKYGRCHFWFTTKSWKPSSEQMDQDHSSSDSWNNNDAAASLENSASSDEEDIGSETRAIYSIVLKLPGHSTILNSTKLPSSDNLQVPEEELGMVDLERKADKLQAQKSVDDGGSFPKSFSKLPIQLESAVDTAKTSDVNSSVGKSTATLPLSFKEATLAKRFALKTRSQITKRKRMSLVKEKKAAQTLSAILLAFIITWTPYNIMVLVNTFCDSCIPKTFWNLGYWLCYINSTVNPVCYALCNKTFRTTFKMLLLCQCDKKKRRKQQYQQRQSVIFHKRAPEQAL
# Summary of the method: as §1
Compound,EC50 (M4 muscarinic receptor) [µM],Emax (M4 muscarinic receptor) [%],EC50 (M2 muscarinic receptor) [µM],Emax (M2 muscarinic receptor) [%],EC50 (M1 muscarinic receptor) [µM],Emax (M1 muscarinic receptor) [%],EC50 (M3 muscarinic receptor) [µM],Emax (M3 muscarinic receptor) [%]
CCC(=O)C1NCCC1C(=O)N[C@H]1CCC2(CCN(CCC(C)(C)C)CC2)c2cc(F)ccc21 (stereo partly shown) [compound 26],< 2,25 to 100,> 5,< 25,< 2,25 to 100,> 5,< 25
CC(C)(C)CCN1CCC2(CC[C@H](NC(=O)C3CCCO3)c3ccc(F)cc32)CC1 (stereo partly shown) [compound 27],< 2,25 to 100,< 2,< 25,< 2,25 to 100,> 5,< 25
CC(C)(C)CCN1CCC2(CC[C@H](NC(=O)CC3CCCC3=O)c3ccc(F)cc32)CC1 (stereo partly shown) [compound 28],< 2,25 to 100,2 to 5,< 25,< 2,25 to 100,> 5,< 25
CC(C)(C)CCN1CCC2(CC[C@@H](NC(=O)CCN3CCCC3=O)c3ccc(F)cc32)CC1 [compound 29],< 2,25 to 100,< 2,25 to 100,< 2,25 to 100,> 5,< 25
CCN(C(=O)C1CCOC(C)(C)C1)[C@H]1CCC2(CCN(CCC(C)(C)C)CC2)c2ccccc21 (stereo partly shown) [compound 30],2 to 5,25 to 100,> 5,< 25,> 5,< 25,> 5,< 25
CC(C)(C)CCN1CCC2(CC[C@H](NC(=O)C3CCCO3)c3ccccc32)CC1 (stereo partly shown) [compound 31],< 2,25 to 100,< 2,< 25,< 2,25 to 100,> 5,< 25
CC(=O)N[C@@H]1c2ccccc2C2(CCN(CCC(C)(C)C)CC2)CC1(F)F [compound 32],< 2,25 to 100,< 2,25 to 100,< 2,25 to 100,> 5,< 25
CC(=O)NCC(=O)N[C@H]1CCC2(CCN(CCC(C)(C)C)CC2)c2cc(F)ccc21 [compound 33],< 2,25 to 100,< 2,25 to 100,< 2,25 to 100,> 5,< 25
CCN(C(=O)C(C)NC(C)=O)[C@H]1CCC2(CCN(CCC(C)(C)C)CC2)c2ccccc21 (stereo partly shown) [compound 34],< 2,25 to 100,2 to 5,< 25,< 2,25 to 100,> 5,< 25
CC(C)NC(=O)C1CCC2(CCN(CCC(C)(C)C)CC2)c2ccccc21 (stereo not shown) [compound 35],< 2,25 to 100,> 5,< 25,> 5,< 25,> 5,< 25
CC(C)(C)CCN1CCC2(CC[C@H](NC(=O)C3CCN(C(=O)c4ccccc4)CC3)c3ccccc32)CC1 [compound 36],< 2,25 to 100,> 5,< 25,< 2,25 to 100,> 5,< 25
CC(C)(C)CCN1CCC2(CCCc3ccccc32)CC1 [compound 37],< 2,25 to 100,2 to 5,25 to 100,2 to 5,25 to 100,> 5,< 25
C[C@H](C(=O)N[C@H]1CCC2(CCN(CCC(C)(C)C)CC2)c2ccccc21)N1CCCCC1=O [compound 38],< 2,25 to 100,> 5,< 25,< 2,25 to 100,> 5,< 25
CCN(C(=O)C1CCCO1)[C@H]1CCC2(CCN(CCC(C)(C)C)CC2)c2ccccc21 (stereo partly shown) [compound 39],< 2,25 to 100,> 5,< 25,> 5,25 to 100,> 5,< 25
Cc1cc(C(=O)N[C@@H]2CCC3(CCN(CCC(C)(C)C)CC3)c3cc(F)ccc32)nn1C [compound 40],< 2,25 to 100,< 2,25 to 100,< 2,25 to 100,> 5,< 25
CC(=O)N1CCCCC1C(=O)N[C@H]1CCC2(CCN(CCC(C)(C)C)CC2)c2ccccc21 (stereo partly shown) [compound 41],< 2,25 to 100,> 5,< 25,< 2,25 to 100,> 5,< 25
CCN(C(=O)CC(C)(C)O)[C@H]1CCC2(CCN(CCC(C)(C)C)CC2)c2ccccc21 [compound 42],< 2,25 to 100,> 5,< 25,2 to 5,25 to 100,> 5,< 25
